Drawing on PubChem BioAssay (NCI), this text covers TGI and GI50 for eleven compounds.

Some test systems named below: BT-549 breast; HCT-15 colon; HOP-92 NSCLC; HS 578T breast; LOX IMVI melanoma; NCI-H460 lung; RPMI-8226 leukemia; SF-539 CNS; SNB-19 CNS; UACC-257 melanoma; UO-31 renal; CCRF-CEM leukemia; EKVX NSCLC; MOLT-4 leukemia; MDA-N.
What all share (assay): NCI-60 cell line screen, 48 h

Where “and” joins values, the source holds several entries; their conditions need not be identical. Equal values may be shown once.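 Method: 48-hour compound exposure of cells in 96-well plates, five concentrations, linear interpolation of endpoints. Here, GI50 denotes the concentration required for 50% inhibition of growth. TGI is the concentration that stops growth completely.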

As to `CC(SC(=S)N1CCCC1)C(=O)Nc1nnc(-c2ccc(Cl)cc2)o1` (centres undefined), the TGI in the assay on BT-549 breast is > 100 µM; with HCT-15 colon, > 100 µM; in the assay on HOP-92 NSCLC it was > 100 µM; in the assay on HS 578T breast it was > 100 µM; with LOX IMVI melanoma it was 54.8 µM; in the assay on NCI-H460 lung, > 100 µM. Moreover, the TGI in the assay on RPMI-8226 leukemia was 44.8 µM; with SF-539 CNS, > 100 µM; in the assay with SNB-19 CNS, > 100 µM; in the assay on UACC-257 melanoma, > 100 µM; in the assay on UO-31 renal, 63.9 µM.

As for `COC1=C(OC)C(=O)c2cc(SC)c(=O)c(SC)cc2C1=O`, the TGI in the assay with CCRF-CEM leukemia was 4.93 µM; in the assay on EKVX NSCLC, 48.9 µM; with HCT-15 colon, > 100 µM; in the assay on HOP-92 NSCLC, 48.4 µM; in the assay with LOX IMVI melanoma it was 16.6 µM; in the assay on MOLT-4 leukemia, 17.4 µM. Also, the TGI in the assay on NCI-H460 lung was > 100 µM; with RPMI-8226 leukemia, 40.2 µM; in the assay on SF-539 CNS, 24.8 µM; in the assay on SNB-19 CNS it was 60.7 µM; in the assay on UACC-257 melanoma it was 21.6 µM; in the assay on UO-31 renal it was 40.5 µM.

As to `CC[C@@]1(O)C(=O)OCc2c1cc1n(c2=O)Cc2c-1nc1ccccc1c2C=Nc1ccc(N[C@@H]2c3cc4c(cc3[C@@H](c3cc(OC)c(O)c(OC)c3)[C@H]3C(=O)OC[C@@H]32)OCO4)cc1`, the TGI is > 100 µM with CCRF-CEM leukemia; 19.9 µM and 10.9 µM with EKVX NSCLC; > 100 µM in the assay on HS 578T breast; 27.6 µM and 3.4 µM in the assay with MDA-N; > 100 µM in the assay on MOLT-4 leukemia; 0.132 µM with SF-539 CNS. Besides, the TGI was > 100 µM in the assay on SNB-19 CNS and 1.52 µM with UO-31 renal. Moreover, the GI50 in the assay on EKVX NSCLC is 2.51 µM and 0.665 µM; in the assay with HCT-15 colon it was 1.08 µM and 0.236 µM; in the assay with HOP-92 NSCLC, 0.0258 µM; with MDA-N, 0.351 µM and 0.0613 µM; in the assay on UACC-257 melanoma, 0.354 µM.

Regarding `CN1NC2=NCCN=C3NN(C)C(=NCCN=C1S2)S3`, the TGI in the assay with CCRF-CEM leukemia, with EKVX NSCLC, in the assay with HCT-15 colon, in the assay on HOP-92 NSCLC, in the assay on LOX IMVI melanoma and with MOLT-4 leukemia was > 100 µM in each case. Further, the TGI with NCI-H460 lung, in the assay with RPMI-8226 leukemia, with SF-539 CNS, in the assay with SNB-19 CNS and in the assay with UACC-257 melanoma was > 100 µM each time.

`CC1=NN(c2cccc(Cl)c2)C(=N/c2nc3ccccc3s2)/C1=C\c1ccccc1O`: the TGI with CCRF-CEM leukemia is > 100 µM; in the assay with EKVX NSCLC, > 100 µM; in the assay with HCT-15 colon, 81.1 µM; with HOP-92 NSCLC, 83.5 µM; in the assay on HS 578T breast it was 56.5 µM; with LOX IMVI melanoma, 57.6 µM. Further, the TGI was 93.5 µM in the assay with MDA-N; 87.4 µM in the assay on MOLT-4 leukemia; 84.4 µM with NCI-H460 lung; > 100 µM in the assay with RPMI-8226 leukemia; > 100 µM in the assay on SF-539 CNS; 62.2 µM in the assay on UACC-257 melanoma. Further, in the assay on UO-31 renal, the TGI is > 100 µM.

On to `CC1=CC(=C(c2ccc(N)c(C)c2)c2ccc(N)c(C)c2)C=CC1=N`, for which the TGI in the assay on CCRF-CEM leukemia was 23 µM; with EKVX NSCLC, 45.8 µM; in the assay on HCT-15 colon, > 61.4 µM; in the assay on HOP-92 NSCLC, 14.2 µM; in the assay with LOX IMVI melanoma, 15.3 µM; in the assay on MOLT-4 leukemia, 30.9 µM. The TGI was > 31.6 µM in the assay on NCI-H460 lung; 29.6 µM with RPMI-8226 leukemia; 14.5 µM with SF-539 CNS; 15.8 µM in the assay with SNB-19 CNS; 15.7 µM in the assay on UACC-257 melanoma; 84.9 µM in the assay with UO-31 renal.

Turning to `CCOC(=O)C12C3CCC1C2C(=O)C3` (centres undefined), the TGI in the assay with BT-549 breast, in the assay on CCRF-CEM leukemia, with EKVX NSCLC, in the assay with HCT-15 colon, in the assay with LOX IMVI melanoma and with MDA-N was > 100 µM in each case. For the same compound, the TGI in the assay on MOLT-4 leukemia, in the assay on NCI-H460 lung, in the assay with RPMI-8226 leukemia, in the assay with SF-539 CNS, in the assay with SNB-19 CNS and with UACC-257 melanoma was > 100 µM throughout. The TGI with UO-31 renal was > 100 µM.

For the compound `C=C[C@@]1(C)CC(=O)[C@]2(O)[C@@]3(C)[C@@H](OC(C)=O)CCC(C)(C)[C@@H]3[C@H](O)[C@H](OC(C)=O)[C@@]2(C)O1`, the TGI in the assay on BT-549 breast, in the assay on EKVX NSCLC, in the assay with HCT-15 colon, in the assay on HOP-92 NSCLC, in the assay with LOX IMVI melanoma and in the assay on MDA-N was > 100 µM in each case. Besides, the TGI in the assay with MOLT-4 leukemia, in the assay on NCI-H460 lung, in the assay on SF-539 CNS, with SNB-19 CNS, in the assay on UACC-257 melanoma and in the assay with UO-31 renal was > 100 µM each time.

For `COC(=O)CC(SCCO)SCCO`, the TGI in the assay with CCRF-CEM leukemia, in the assay with EKVX NSCLC, in the assay with HOP-92 NSCLC, in the assay on HS 578T breast, in the assay with LOX IMVI melanoma and in the assay on MDA-N was > 100 µM each time. In addition, the TGI with MOLT-4 leukemia, in the assay on NCI-H460 lung, in the assay on RPMI-8226 leukemia, in the assay on SF-539 CNS, in the assay on SNB-19 CNS and with UACC-257 melanoma was > 100 µM in each case. For the same compound, the TGI in the assay with UO-31 renal is > 100 µM.

`CCCCC1=C(C(=O)N2CCOCC2)C2(OCCO2)C1Cl` (centres undefined): the TGI with CCRF-CEM leukemia, in the assay with EKVX NSCLC, with HCT-15 colon, in the assay with HOP-92 NSCLC, with HS 578T breast and in the assay on LOX IMVI melanoma was > 100 µM in each case. Also, the TGI with MDA-N is 39.7 µM; with MOLT-4 leukemia it was > 100 µM; in the assay on SF-539 CNS, 37.8 µM; in the assay on SNB-19 CNS it was > 100 µM; in the assay on UACC-257 melanoma, 60.9 µM; in the assay with UO-31 renal, > 100 µM.

Regarding `COC1/C=C/C(C)C(C(C)C(OC)C(C)CCC(=O)C(C)C(CC(=O)O)OC)OC(=O)/C=C/C=C(\C)CC(OC)C(OC)C2=CC(=O)O[C@@H](C(C)C(OC)CC(OC)/C=C/C(C)C(O)C1)[C@H]2O` (some centres undefined), the TGI in the assay with CCRF-CEM leukemia was > 1.07 µM; in the assay on EKVX NSCLC, 0.175 µM; with HCT-15 colon it was 0.926 µM; in the assay with HOP-92 NSCLC it was 0.0917 µM; with LOX IMVI melanoma it was > 1.07 µM; with MDA-N, > 1.07 µM. In addition, the TGI is > 1.07 µM in the assay on MOLT-4 leukemia; > 1.07 µM with NCI-H460 lung; > 1.07 µM with RPMI-8226 leukemia; > 1.07 µM in the assay with SNB-19 CNS; > 1.07 µM in the assay with UACC-257 melanoma; 0.15 µM with UO-31 renal.
